Test results reported in patent US20170216179A1, “COSMETIC AND/OR DERMATOLOGICAL COMPOSITION FOR COLOURING THE SKIN” (AFFICHEM, priority 2014, published 2017).

Key:
TRP-1 = assay: Gene expression by RT-qPCR, TRP-1; assay type: cell-based, murine; conditions: 1 μM, 24 h
Method: (§1) Cells were seeded and treated for 24 h with the molecules the action of which we want to study, that is to say here, with DDA (1 μM), on the one hand, and with L7DDA (0.1 or 1 or 2.5 or 5 μM) on the other. The results were compared with irradiated ultraviolet cells as in Example 6.
(§2) To quantify the expression of these genes, RNA extraction from cells was performed. Melanocytes were treated for 24 h with the active molecule or the control agent. 1 mL of Trizol® was added; after 5 min at room temperature, the totality was placed in an Eppendorf tube. 200 μL of CHCl3 were added at 4° C. The Eppendorf tubes were stirred manually, by turning them during 15 sec, left for 5 min at room temperature and then centrifuged at 16000 g at 4° C. for 10 min. The colourless aqueous phase was isolated. 500 μL of isopropanol (−20° C.) were added. The Eppendorf tubes were stirred manually, by turning them during 15 sec, left for 15 min at room temperature and then centrifuged at 16200 g at 4° C. for 10 min. The supernatant was removed. The pellet was washed with 1 mL of 75% ethanol (−20° C.). After centrifugation at 16000 g at 4° C. for 5 min, the supernatant was removed. 10 min after drying, the pellet was resuspended with 30 μL of RNAase-free water. The quantity and purity of RNA were estimated by spectrophotometry (230, 260 and 280 nm). […]

tyrosinase [1] = assay: Stimulation of tyrosinase activity in melanocytes (L-DOPA oxidation); assay type: cell-based, murine; conditions: cells treated 24 h; with respect to the control (=100%); FIG. 4
Method: The study was conducted on healthy murine melanocytes. The results were compared with those obtained with a positive control subjected to a dose of 20 mJ/cm^2 of ultraviolet radiation. The cells were treated for 24 h with either the vehicle used (ethanol) or with the test product. The tyrosinase activity was quantified according to the protocol described by Ando et al. (J. Lipid Res. 1999, 40, 1312) as explained below.
5 Million cells were isolated after centrifugation at 1500 rpm for 5 min at 4° C. The pellet was washed twice with PBS and then transferred into an Eppendorf tube and centrifuged at 5000 g for 5 min. The supernatant was removed. 1 mL of 0.5% by mass sodium deoxycholate solution was added (cell lysis). After 15 min at 0° C., 3 mL of a solution of 0.1% by mass of L-DOPA in 0.1M phosphate buffer (pH 6.8) were added. The whole was placed at 37° C. for 10 min. Tyrosinase activity was spectrophotometrically analysed by following the oxidation of L-DOPA to DOPAchrome. Absorbance was measured at 475 nm. The tyrosinase activity was expressed based on the control (=100%), which determines the cell basal tyrosinase activity.

TRP-2 = assay: Gene expression by RT-qPCR, TRP-2; assay type: cell-based, murine; conditions: 1 μM, 24 h
Method: as §1, §2

[2] = test system: healthy murine melanocytes; assay: Quantification of melanin synthesized by melanocytes; assay type: cell-based; conditions: cells treated 24 h; relative to control (=100%); FIG. 3
Method: Quantification of synthesized melanin by healthy murine melanocytes was performed according to the protocol described by Ando et al. (J. Lipid Res., 1999, 40, 1312).
Cells were seeded and treated for 24 h with the test product or the used vehicle (ethanol) and with, as a positive control, exposure to a dose of 20 mJ/cm^2 of ultraviolet radiation.
5 Million cells were isolated after centrifugation at 1500 rpm for 5 min at 4° C. The pellet was washed twice with PBS and then transferred into an Eppendorf tube and centrifuged at 5000 g for 5 min. The supernatant was removed. 200 μL of water and 1 mL of EtOH/ether (1/1) were added (melanin was insoluble in this mixture). After 15 min at room temperature, the totality was again centrifuged at 5000 g for 5 min; the supernatant was removed. The pellet was then taken up with 300 μL of a solution of NaOH(1M) in H2O/DMSO 90/10 and placed at 80° C. for one hour. Absorbance was measured at 470 nm. The amount of synthesized melanin was expressed based on the control (=100%).

tyrosinase [3] = assay: Gene expression by RT-qPCR, tyrosinase; assay type: cell-based, murine; conditions: 1 μM, 24 h
Method: as §1, §2

In the case of `CC(C)CCC[C@@H](C)[C@H]1CC[C@H]2[C@@H]3C[C@@H](NCCc4c[nH]cn4)[C@@]4(O)C[C@@H](O)CC[C@]4(C)[C@H]3CC[C@]12C` [DDA, 5α-hydroxy-6β-[2-(1H-imidazol-4-yl)ethylamino]cholestan-3β-ol], the “ΔΔCT (TRP-1)” value (TRP-1) is reported as 13.45, the “tyrosinase activity in cells” value (tyrosinase [1]) is reported as “increased” and the “ΔΔCT (TRP-2)” value (TRP-2) is reported as 6.97. For the same compound, the synthesis of melanin [2] was “increase” and the “ΔΔCT (tyrosinase)” value (tyrosinase [3]) was 6.09.
